Experimental data published in paper PMC4568520, “Interrogation of the intersubunit interface of the open Hv1 proton channel with a probe of allosteric coupling” (Scientific Reports, 2015).
Positions count from the first letter of the chain named.

How the values were obtained:
[1] = molecular target: T1, human Hv1 (wild type, dimeric) (Homo sapiens, UniProt Q96D96); test: inside-out patch clamp, proton current inhibition, Hill fit; format: biochemical; details: wild-type dimer; open-channel block at +120 mV; pHi = pHo = 6.0; 22 °C; inhibitor on intracellular side
T1 construct: gene HVCN1; full-length human Hv1 homodimer, 273 residues; pGEMHE cRNA in Xenopus laevis oocytes, inside-out patches
T1 sequence (Q96D96 1-273): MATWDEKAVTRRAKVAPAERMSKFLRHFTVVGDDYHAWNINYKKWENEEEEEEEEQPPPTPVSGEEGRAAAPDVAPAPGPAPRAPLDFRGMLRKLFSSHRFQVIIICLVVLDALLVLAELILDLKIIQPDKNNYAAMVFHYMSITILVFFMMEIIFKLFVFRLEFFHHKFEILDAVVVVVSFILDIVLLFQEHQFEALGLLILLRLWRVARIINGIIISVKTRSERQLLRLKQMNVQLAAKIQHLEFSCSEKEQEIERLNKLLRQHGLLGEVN

[2] = molecular target: T1, human Hv1 (wild type, dimeric); test: cell-based; set-up: species or system Xenopus oocytes; patch-clamp proton currents, Hill fit of current inhibition, +120 mV, pHi = pHo = 6.0; details: apparent Kd, Hill fit of current inhibition; read-out: Kd (µM) (±SE)
Text: Figure 1 Hv1 inhibition by guanidinothiazole derivatives. […] [2] 2-guanidino-benzothiazole (GBTA), [3] (5-trifluoromethyl-1,3-benzothiazol-2-yl)guanidine, [4] naphtho[1,2-d][1,3]thiazol-2-yl-guanidine, [5] (4-methyl-1,3-thiazol-2-yl)guanidine, [6] […] 1-[4-(4-chlorophenyl)-1,3-thiazol-2-yl]guanidine, [12] 1-[4-(3,4-dimethoxyphenyl)-1,3-thiazol-2-yl]guanidine. (b) Inhibition of human Hv1 activity by the indicated guanidinothiazoles and reference compound 2GBI (teal column). Hv1 proton currents were measured in inside out patches from Xenopus oocytes in response to depolarizations to +120 mV from a holding potential of −80 mV. Each inhibitor was added to the bath solution at a concentration of 200 μM. pHi = pHo = 6.0. Data are means ± S.E.M. (n ≥ 4). (c) Concentration dependences of inhibition of human Hv1 by compounds [2], [3], [6], and [11]. […] Apparent dissociation constants (Kd) for the different combinations of channel and inhibitor (Supplementary Table 1) were determined by fitting the concentration dependences of inhibition (average %inhib values) with the Hill equation: Figure 6 Open-state coupling is mediated by direct physical interaction between outer ends of S1 segments in the two subunits. […] Hill coefficients in inset histograms were determined from fits reported in Supplementary Figs 3 and 4. […]

D112E I127C+βME = molecular target: T2, D112E I127C+βME (Homo sapiens, UniProt Q96D96, D112E/I127C); test: cell-based; set-up: species or system Xenopus oocytes; patch-clamp proton currents, Hill fit of current inhibition, +120 mV, pHi = pHo = 6.0; details: read-out: Kd (µM) (±SE)
T2 construct: gene HVCN1; Hv1 homodimer, cysteines reduced by 10 mM βME
T2 sequence (Q96D96 1-273 D112E/I127C): T1 sequence (Q96D96 1-273) with D112E, I127C
Description: (§1) [2] 2-guanidino-benzothiazole (GBTA), [3] (5-trifluoromethyl-1,3-benzothiazol-2-yl)guanidine, [4] naphtho[1,2-d][1,3]thiazol-2-yl-guanidine, [5] (4-methyl-1,3-thiazol-2-yl)guanidine, [6] […] 1-[4-(4-chlorophenyl)-1,3-thiazol-2-yl]guanidine, [12] 1-[4-(3,4-dimethoxyphenyl)-1,3-thiazol-2-yl]guanidine. […] Hv1 proton currents were measured in inside out patches from Xenopus oocytes in response to depolarizations to +120 mV from a holding potential of −80 mV. Each inhibitor was added to the bath solution at a concentration of 200 μM. pHi = pHo = 6.0. Data are means ± S.E.M. (n ≥ 4). […] (a) Schematics of mutant Hv1 dimers and linked dimers designed to study how intersubunit cysteine crosslinking affects GBTA binding cooperativity. […] Hill coefficients in inset histograms were determined from fits reported in Supplementary Figs 3 and 4.

I127C+βME = molecular target: T3, I127C+βME (Homo sapiens, UniProt Q96D96, I127C); test: cell-based; set-up: species or system Xenopus oocytes; patch-clamp proton currents, Hill fit of current inhibition, +120 mV, pHi = pHo = 6.0; details: read-out: Kd (µM) (±SE)
T3 construct: gene HVCN1; Hv1 homodimer, cysteines reduced by 10 mM βME
T3 sequence (Q96D96 1-273 I127C): T1 sequence (Q96D96 1-273) with I127C
Description: as §1

[3] = molecular target: T4, human Hv1 (wild type, dimeric) D123R (Homo sapiens, UniProt Q96D96, D123R); test: cell-based; set-up: species or system Xenopus oocytes; patch-clamp proton currents, Hill fit of current inhibition, +120 mV, pHi = pHo = 6.0; details: apparent Kd, Hill fit of current inhibition; read-out: Kd (µM) (±SE)
T4 construct: gene HVCN1; full-length human Hv1 homodimer, 273 residues; pGEMHE cRNA in Xenopus laevis oocytes, inside-out patches
T4 sequence (Q96D96 1-273 D123R): T1 sequence (Q96D96 1-273) with D123R
Description: as §1

[4] = molecular target: T5, human Hv1 (wild type, dimeric) E119A (Homo sapiens, UniProt Q96D96, E119A); test: cell-based; set-up: species or system Xenopus oocytes; patch-clamp proton currents, Hill fit of current inhibition, +120 mV, pHi = pHo = 6.0; details: apparent Kd, Hill fit of current inhibition; read-out: Kd (µM) (±SE)
T5 construct: gene HVCN1; full-length human Hv1 homodimer, 273 residues; pGEMHE cRNA in Xenopus laevis oocytes, inside-out patches
T5 sequence (Q96D96 1-273 E119A): T1 sequence (Q96D96 1-273) with E119A
Description: as §1

[5] = molecular target: T6, human Hv1 (wild type, dimeric) K125A (Homo sapiens, UniProt Q96D96, K125A); test: cell-based; set-up: species or system Xenopus oocytes; patch-clamp proton currents, Hill fit of current inhibition, +120 mV, pHi = pHo = 6.0; details: apparent Kd, Hill fit of current inhibition; read-out: Kd (µM) (±SE)
T6 construct: gene HVCN1; full-length human Hv1 homodimer, 273 residues; pGEMHE cRNA in Xenopus laevis oocytes, inside-out patches
T6 sequence (Q96D96 1-273 K125A): T1 sequence (Q96D96 1-273) with K125A
Description: as §1

SMILES	apparent Kd [1]	Kd [2]	Kd (D112E I127C+βME)	Kd (I127C+βME)	Kd [3]	Kd [4]	Kd [5]
NC(N)=Nc1nc2ccccc2[nH]1 [compound 1, 2-Guanidino-benzimidazole]	inhibition of dimeric and monomeric Hv1 by compounds 2GBI and GBTA						
N=C(N)Nc1nc2ccccc2s1 [compound 2, 2-guanidino-benzothiazole]		90 ± 7 µM	191 ± 11 µM	44.3 ± 2.5 µM	35.8 ± 2.4 µM	40.5 ± 2.9 µM	86 ± 6 µM
